Source: ChEMBL document CHEMBL1201862, “PubChem BioAssay data set” (2004)
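1) Cells in 96-well plates. 2) Compound, 48 h, 5 concentrations. 3) Linear interpolation between surrounding doses. 4) Unreached endpoint = highest concentration. Here, GI50 denotes the concentration required for 50% inhibition of growth.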 The source made the active and inactive calls. Rule as the data show it: active = GI50 up to about 1.1 µM and inactive = higher.

Assays:
Test in all cases: NCI anticancer screen, dose series, 48 h
[1] = test system: HOP-92
[2] = test system: SK-OV-3
[3] = test system: EKVX
[4] = test system: SF-539
[5] = test system: COLO 205
[6] = test system: NCI-H522
[7] = test system: M14
[8] = test system: OVCAR-4
[9] = test system: 786-0
[10] = test system: SK-MEL-28
[11] = test system: NCI-H23
[12] = test system: SNB-19
[13] = test system: MDA-MB-231
[14] = test system: CAKI-1
[15] = test system: SK-MEL-2
[16] = test system: SW-620
[17] = test system: U-251
[18] = test system: HCC 2998
[19] = test system: A549
[20] = test system: UACC-62
[21] = test system: MDA-MB-435
[22] = test system: OVCAR-5
[23] = test system: PC-3
[24] = test system: RXF 393
[25] = test system: CCRF-CEM
[26] = test system: KM12
[27] = test system: UACC-257
[28] = test system: NCI/ADR-RES
[29] = test system: BT-549
[30] = test system: OVCAR-3
[31] = test system: TK-10
[32] = test system: NCI-H460
[33] = test system: T47D
[34] = test system: Hs-578T
[35] = test system: SF-268
[36] = test system: MDA-N
[37] = test system: IGROV-1
[38] = test system: MCF7
[39] = test system: SK-MEL-5
[40] = test system: SNB-75
[41] = test system: NCI-H226
[42] = test system: RPMI-8226
[43] = test system: SF-295
[44] = test system: DU-145
[45] = test system: HCT-15
[46] = test system: LOX IMVI
[47] = test system: MOLT-4
[48] = test system: K562
[49] = test system: HOP-62
[50] = test system: ACHN
[51] = test system: SR
[52] = test system: UO-31
[53] = test system: OVCAR-8
[54] = test system: Malme-3M
[55] = test system: SN12C
[56] = test system: HCT-116
[57] = test system: HT-29
[58] = test system: A498
[59] = test system: HL-60

SMILES: S=C(Nc1ccc(Cl)cc1)SC1CCCCC1
- GI50 [1]: 23.5 µM (inactive)
- GI50 [2]: 27.8 µM (inactive)
- GI50 [3]: 20.8 µM (inactive)
- GI50 [4]: 23.1 µM (inactive)
- GI50 [5]: 30.5 µM (inactive)
- GI50 [6]: 19.7 µM (inactive)
- GI50 [7]: 19.7 µM (inactive)
- GI50 [8]: 33.9 µM (inactive)
- GI50 [9]: 36.6 µM (inactive)
- GI50 [10]: 17.3 µM (inactive)
- GI50 [11]: 20.5 µM (inactive)
- GI50 [12]: 20.8 µM (inactive)
- GI50 [13]: 29.4 µM (inactive)
- GI50 [14]: 15 µM (inactive)
- GI50 [15]: 17.6 µM (inactive)
- GI50 [16]: 32.9 µM (inactive)
- GI50 [17]: 32.4 µM (inactive)
- GI50 [18]: 19.2 µM (inactive)
- GI50 [19]: 19.2 µM (inactive)
- GI50 [20]: 14 µM (inactive)
- GI50 [21]: 29.9 µM (inactive)
- GI50 [22]: 17.5 µM (inactive)
- GI50 [23]: 35.7 µM (inactive)
- GI50 [24]: 25.1 µM (inactive)
- GI50 [25]: 33.7 µM (inactive)
- GI50 [26]: 28 µM (inactive)
- GI50 [27]: 25.9 µM (inactive)
- GI50 [28]: 37.1 µM (inactive)
- GI50 [29]: 29 µM (inactive)
- GI50 [30]: 21.4 µM (inactive)
- GI50 [31]: 40.6 µM (inactive)
- GI50 [32]: 28.4 µM (inactive)
- GI50 [33]: 22.5 µM (inactive)
- GI50 [34]: 31.8 µM (inactive)
- GI50 [35]: 27 µM (inactive)
- GI50 [36]: 22.8 µM (inactive)
- GI50 [37]: 21.2 µM (inactive)
- GI50 [38]: 19 µM (inactive)
- GI50 [39]: 16.7 µM (inactive)
- GI50 [40]: 25.2 µM (inactive)
- GI50 [41]: 72.4 µM (inactive)
- GI50 [42]: 40.1 µM (inactive)
- GI50 [43]: 19.1 µM (inactive)
- GI50 [44]: 40.9 µM (inactive)
- GI50 [45]: 23.2 µM
- GI50 [46]: 16.4 µM (inactive)
- GI50 [47]: 29.2 µM (inactive)
- GI50 [48]: 36.1 µM (inactive)
- GI50 [49]: 27.7 µM (inactive)
- GI50 [50]: 17.5 µM (inactive)
- GI50 [51]: 32.6 µM (inactive)
- GI50 [52]: 27 µM (inactive)
- GI50 [53]: 31.5 µM (inactive)
- GI50 [54]: 28.4 µM (inactive)
- GI50 [55]: 19.2 µM (inactive)
- GI50 [56]: 25.6 µM (inactive)
- GI50 [57]: 20.8 µM (inactive)

SMILES: N/C(COc1ccc(Cl)cc1)=N\NC(=O)c1ccncc1
- GI50 [1]: 58.9 µM (inactive)
- GI50 [2]: > 100 µM (inactive)
- GI50 [3]: 76.2 µM (inactive)
- GI50 [4]: > 100 µM (inactive)
- GI50 [5]: > 100 µM (inactive)
- GI50 [6]: > 100 µM (inactive)
- GI50 [7]: > 100 µM (inactive)
- GI50 [8]: > 100 µM (inactive)
- GI50 [9]: 54.3 µM (inactive)
- GI50 [10]: > 100 µM (inactive)
- GI50 [11]: > 100 µM (inactive)
- GI50 [12]: > 100 µM (inactive)
- GI50 [13]: > 100 µM (inactive)
- GI50 [14]: > 100 µM (inactive)
- GI50 [15]: > 100 µM (inactive)
- GI50 [16]: > 100 µM (inactive)
- GI50 [17]: > 100 µM (inactive)
- GI50 [18]: > 100 µM (inactive)
- GI50 [19]: > 100 µM (inactive)
- GI50 [58]: 57.9 µM (inactive)
- GI50 [20]: > 100 µM (inactive)
- GI50 [21]: > 100 µM (inactive)
- GI50 [59]: > 100 µM (inactive)
- GI50 [22]: > 100 µM (inactive)
- GI50 [23]: > 100 µM (inactive)
- GI50 [24]: 35.9 µM (inactive)
- GI50 [25]: 51.1 µM (inactive)
- GI50 [26]: > 100 µM (inactive)
- GI50 [27]: 72.4 µM (inactive)
- GI50 [28]: 49.9 µM (inactive)
- GI50 [29]: > 100 µM (inactive)
- GI50 [30]: > 100 µM (inactive)
- GI50 [31]: > 100 µM (inactive)
- GI50 [32]: 63.5 µM (inactive)
- GI50 [33]: 62.4 µM (inactive)
- GI50 [34]: > 100 µM (inactive)
- GI50 [35]: > 100 µM (inactive)
- GI50 [36]: > 100 µM (inactive)
- GI50 [37]: > 100 µM (inactive)
- GI50 [38]: > 100 µM (inactive)
- GI50 [40]: 30.3 µM (inactive)
- GI50 [42]: 39.4 µM (inactive)
- GI50 [43]: > 100 µM (inactive)
- GI50 [44]: > 100 µM (inactive)
- GI50 [45]: 55.6 µM
- GI50 [46]: 38.4 µM (inactive)
- GI50 [47]: > 100 µM (inactive)
- GI50 [48]: > 100 µM (inactive)
- GI50 [49]: > 100 µM (inactive)
- GI50 [50]: > 100 µM (inactive)
- GI50 [53]: > 100 µM (inactive)
- GI50 [54]: > 100 µM (inactive)
- GI50 [55]: > 100 µM (inactive)
- GI50 [56]: > 100 µM (inactive)
- GI50 [57]: > 100 µM (inactive)
